In PubChem BioAssay (NCI):
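Method: 48-hour compound exposure of cells in 96-well plates, five concentrations, linear interpolation of endpoints. The concentration for full growth arrest is given as TGI.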

Assays:
Test in all cases: NCI-60 cell line screen, 48 h
[1] = system: MALME-3M melanoma
[2] = system: U251 CNS
[3] = system: MOLT-4 leukemia
[4] = system: NCI-H460 lung
[5] = system: SW-620 colon
[6] = system: LOX IMVI melanoma
[7] = system: OVCAR-8 ovarian
[8] = system: K-562 leukemia
[9] = system: RPMI-8226 leukemia
[10] = system: HCC-2998 colon
[11] = system: M14 melanoma
[12] = system: EKVX NSCLC
[13] = system: SF-539 CNS
[14] = system: HL-60(TB) leukemia
[15] = system: DMS 273 small cell lung
[16] = system: OVCAR-5 ovarian
[17] = system: CCRF-CEM leukemia
[18] = system: HT29 colon
[19] = system: IGROV1 ovarian
[20] = system: A549 NSCLC
[21] = system: SNB-19 CNS
[22] = system: SF-295 CNS
[23] = system: RXF 393 renal
[24] = system: COLO 205 colon
[25] = system: NCI-H226 lung
[26] = system: DMS 114 small cell lung
[27] = system: TK-10 renal
[28] = system: HCT-15 colon
[29] = system: NCI-H522 lung
[30] = system: DLD-1 colon
[31] = system: SK-OV-3 ovarian
[32] = system: HCT-116 colon
[33] = system: ACHN renal
[34] = system: SF-268 CNS
[35] = system: 786-0 renal
[36] = system: CAKI-1 renal
[37] = system: HOP-62 NSCLC
[38] = system: NCI-H23 lung
[39] = system: KM12 colon
[40] = system: SN12C renal
[41] = system: SNB-75 CNS
[42] = system: OVCAR-3 ovarian
[43] = system: SR leukemia
[44] = system: UO-31 renal
[45] = system: M19-MEL melanoma
[46] = system: LXFL 529 NSCLC
[47] = system: SK-MEL-2 melanoma
[48] = system: KM20L2 colon
[49] = system: UACC-257 melanoma
[50] = system: HOP-92 NSCLC
[51] = system: SK-MEL-28 melanoma
[52] = system: MDA-MB-231 breast
[53] = system: MCF7 breast
[54] = system: DU-145 prostate
[55] = system: OVCAR-4 ovarian
[56] = system: NCI/ADR-RES ovarian
[57] = system: UACC-62 melanoma
[58] = system: MDA-MB-435
[59] = system: MDA-N
[60] = system: BT-549 breast
[61] = system: HS 578T breast
[62] = system: SK-MEL-5 melanoma
[63] = system: PC-3 prostate
[64] = system: A498 renal
[65] = system: T-47D breast
[66] = system: SNB-78 CNS

O=C(CO[N+](=O)[O-])OC/C=C/c1ccccc1
TGI [1]: > 100 µM | TGI [2]: > 100 µM | TGI [3]: > 100 µM | TGI [4]: > 100 µM | TGI [5]: > 100 µM | TGI [6]: > 100 µM | TGI [7]: > 100 µM | TGI [8]: > 100 µM | TGI [9]: > 100 µM | TGI [10]: > 100 µM | TGI [11]: > 100 µM | TGI [12]: > 100 µM | TGI [13]: > 100 µM | TGI [14]: 60.6 µM | TGI [15]: > 100 µM | TGI [16]: > 100 µM | TGI [17]: > 100 µM | TGI [18]: > 100 µM | TGI [19]: > 100 µM | TGI [20]: > 100 µM | TGI [21]: > 100 µM | TGI [22]: > 100 µM | TGI [23]: > 100 µM | TGI [24]: > 100 µM | TGI [25]: > 100 µM | TGI [26]: > 100 µM | TGI [27]: > 100 µM | TGI [28]: > 100 µM | TGI [29]: > 100 µM | TGI [30]: > 100 µM | TGI [31]: > 100 µM | TGI [32]: > 100 µM | TGI [33]: > 100 µM | TGI [34]: > 100 µM | TGI [35]: > 100 µM | TGI [36]: > 100 µM | TGI [37]: > 100 µM | TGI [38]: > 100 µM | TGI [39]: > 100 µM | TGI [40]: > 100 µM | TGI [41]: > 100 µM | TGI [42]: > 100 µM | TGI [43]: > 100 µM | TGI [44]: > 100 µM | TGI [45]: > 100 µM | TGI [46]: > 100 µM | TGI [47]: > 100 µM | TGI [48]: > 100 µM | TGI [49]: > 100 µM | TGI [50]: > 100 µM

O=C(/C=C/C(Cl)(Cl)Cl)Nc1ccc(Cl)cc1
TGI [1]: 18.9 µM | TGI [51]: 35.1 µM | TGI [52]: 6.15 µM | TGI [53]: 34.3 µM | TGI [2]: 26.2 µM | TGI [3]: 3.28 µM | TGI [4]: 40 µM | TGI [5]: 14 µM | TGI [6]: 2.2 µM | TGI [7]: > 77.6 µM | TGI [54]: 30.6 µM | TGI [55]: 4.02 µM | TGI [9]: 3.85 µM | TGI [56]: 14 µM | TGI [10]: 14.5 µM | TGI [11]: 11.7 µM | TGI [12]: 13.7 µM | TGI [13]: 3.97 µM | TGI [14]: 2.03 µM | TGI [16]: 27.5 µM | TGI [17]: 3.97 µM | TGI [57]: 21.2 µM | TGI [18]: 4.03 µM | TGI [19]: 1.82 µM | TGI [20]: 8.98 µM | TGI [21]: 32 µM | TGI [22]: 28.8 µM | TGI [23]: 6.62 µM | TGI [24]: 5.16 µM | TGI [25]: 36.6 µM | TGI [27]: 5.73 µM | TGI [28]: 11.4 µM | TGI [29]: 1.43 µM | TGI [58]: 12.4 µM | TGI [59]: 13.8 µM | TGI [31]: 34.6 µM | TGI [32]: 17.6 µM | TGI [33]: 6.37 µM | TGI [34]: 9.82 µM | TGI [35]: 2.96 µM | TGI [36]: 2.02 µM | TGI [37]: 9.95 µM | TGI [60]: 31.1 µM | TGI [61]: 54.3 µM | TGI [38]: 11.3 µM | TGI [39]: 6.07 µM | TGI [62]: 23.5 µM | TGI [40]: 25.8 µM | TGI [41]: 11.1 µM | TGI [42]: 17.3 µM | TGI [43]: 3.25 µM | TGI [44]: 1.91 µM | TGI [63]: 26.5 µM | TGI [47]: 18.1 µM | TGI [64]: 28.8 µM | TGI [49]: 35.7 µM | TGI [65]: 7.84 µM | TGI [50]: 4.08 µM

COc1ccc(-c2ccccc2)c2[nH]c3c(c12)CCNC3=O
TGI [1]: > 100 µM | TGI [2]: > 100 µM | TGI [3]: > 100 µM | TGI [4]: > 100 µM | TGI [5]: > 100 µM | TGI [6]: > 100 µM | TGI [7]: > 100 µM | TGI [8]: > 100 µM | TGI [55]: > 100 µM | TGI [9]: > 100 µM | TGI [10]: > 100 µM | TGI [11]: > 100 µM | TGI [12]: > 100 µM | TGI [13]: > 100 µM | TGI [14]: > 100 µM | TGI [15]: > 100 µM | TGI [16]: > 100 µM | TGI [17]: > 100 µM | TGI [57]: > 100 µM | TGI [18]: > 100 µM | TGI [19]: > 100 µM | TGI [20]: > 100 µM | TGI [21]: > 100 µM | TGI [22]: > 100 µM | TGI [23]: > 100 µM | TGI [24]: > 100 µM | TGI [25]: > 100 µM | TGI [66]: > 100 µM | TGI [27]: > 100 µM | TGI [28]: > 100 µM | TGI [29]: > 100 µM | TGI [30]: > 100 µM | TGI [32]: > 100 µM | TGI [34]: > 100 µM | TGI [35]: > 100 µM | TGI [36]: > 100 µM | TGI [37]: > 100 µM | TGI [38]: > 100 µM | TGI [39]: > 100 µM | TGI [62]: > 100 µM | TGI [40]: > 100 µM | TGI [41]: > 100 µM | TGI [42]: > 100 µM | TGI [43]: > 100 µM | TGI [44]: > 100 µM | TGI [45]: > 100 µM | TGI [46]: > 100 µM | TGI [64]: > 100 µM | TGI [48]: > 100 µM | TGI [49]: > 100 µM | TGI [50]: > 100 µM

C[N+]1(CCC(=O)c2ccccc2)CCC2CCC(C2)C1 (stereo not drawn)
TGI [1]: > 100 µM | TGI [51]: > 100 µM | TGI [52]: > 100 µM | TGI [53]: > 100 µM | TGI [2]: > 100 µM | TGI [3]: > 100 µM | TGI [4]: > 100 µM | TGI [5]: > 100 µM | TGI [6]: > 100 µM | TGI [7]: > 100 µM | TGI [54]: > 100 µM | TGI [8]: > 100 µM | TGI [55]: > 100 µM | TGI [9]: > 100 µM | TGI [56]: > 100 µM | TGI [10]: > 100 µM | TGI [11]: > 100 µM | TGI [12]: > 100 µM | TGI [13]: > 100 µM | TGI [14]: > 100 µM | TGI [16]: > 100 µM | TGI [17]: > 100 µM | TGI [57]: > 100 µM | TGI [18]: > 100 µM | TGI [19]: > 100 µM | TGI [20]: > 100 µM | TGI [21]: > 100 µM | TGI [22]: > 100 µM | TGI [23]: > 100 µM | TGI [24]: > 100 µM | TGI [25]: > 100 µM | TGI [27]: > 100 µM | TGI [28]: > 100 µM | TGI [29]: > 100 µM | TGI [58]: > 100 µM | TGI [59]: > 100 µM | TGI [31]: > 100 µM | TGI [32]: > 100 µM | TGI [33]: > 100 µM | TGI [34]: > 100 µM | TGI [35]: > 100 µM | TGI [36]: > 100 µM | TGI [37]: > 100 µM | TGI [60]: > 100 µM | TGI [61]: > 100 µM | TGI [38]: > 100 µM | TGI [39]: > 100 µM | TGI [62]: > 100 µM | TGI [40]: > 100 µM | TGI [41]: > 100 µM | TGI [42]: > 100 µM | TGI [43]: > 100 µM | TGI [44]: > 100 µM | TGI [63]: > 100 µM | TGI [47]: > 100 µM | TGI [64]: > 100 µM | TGI [49]: > 100 µM | TGI [65]: > 100 µM | TGI [50]: > 100 µM
